# Source: PMC6383948, “Evaluation of a class of isatinoids identified from a high-throughput screen of human kinase inhibitors as anti-Sleeping Sickness agents” (PLoS Neglected Tropical Diseases, 2019)
# Like-named read-outs stand apart in the source and are kept apart here.
# Columns and labels:
# T. b. brucei [1] = conditions: cited from earlier work; for T.b.b. pEC50: data from original HTS, ref [13]
# MRC5-SV2 cell line [2] = conditions: printed in Fig 4; ref [16]; cited from earlier work
# [3] = system: S. mansoni adults and somules; experiment: S. mansoni phenotypic assay, adults and somules (severity score); assay type: cell-based, Schistosoma mansoni (NMRI isolate); conditions: for Adult severity score (10 μM): adults; for Adult severity score (10 μM) / Somule severity score (10 μM): score 0-4; for Somule severity score (10 μM): somules
# Experimental: Maintenance of the Schistosoma mansoni life cycle, preparation of somules (post-infective larvae) and adult worms (≥42-days-old), and co-incubation of these stages with test compounds were as described. An NMRI isolate of S. mansoni was used for all whole-organism screens.
# Somules (40 units/well/96w round-bottomed plate) or adults (five paris/well/24w plate) were cultured in the presence of compounds at 10 µM and phenotypic changes observed as a function of time using an Zeiss Axiovert A1 inverted microscope (Table S4). A constrained nomenclature was used to describe the effects of compounds on parasites (changes in shape, motility and density). To generate a partially quantitative output for comparing drug effects, each descriptor was awarded a score of 1 and these were summed to a maximum score of 4 [7-10]: evidence of degeneracy or death was awarded the maximum score of 4. For adults specifically, damage to the tegument (outer surface) was also awarded a score of 4 based on the indication that damage to the patrasite’s surface is lethal in vivo [11]. Assays were performed twice and representative data are shown.
# [4] = set-up: method as in PMID 25340575; conditions: data from original HTS; ref [13]; cited from earlier work
# L. donovani = experiment: EC50 in L. donovani (infected THP-1 macrophages, luciferase); assay type: cell-based, Leishmania donovani MHOM/ET/67/HU3; conditions: 72 h; for EC50: Leishmania donovani, read-out: L. donovani pEC50 (converted)
# Experimental: Leishmania donovani MHOM/ET/67/HU3 cells with the luciferase gene integrated into the parasite genome[1] were grown at 28 °C in RPMI 1640-modified medium (Invitrogen) supplemented with 20% FBS with […] of hygromycin B.
# The Human myelomonocytic cell line THP-1 was grown at 37 °C and 5% CO2 in RPMI-1640 supplemented with 10% iFBS, 2 mM […], 100 U/mL penicillin and […] streptomycin. 3 x 10^4 THP-1 cells per well in 96-well plates were differentiated to macrophages with 20 ng/mL of PMA treatment for 48 h followed by 24 h of culture in fresh medium.
# Macrophage-differentiated THP-1 cells were infected at a macrophage/parasite ratio of 1/10 with stationary L. donovani promastigotes for 24 h at 35 °C and 5% CO2, and extracellular parasites were removed by washing with PBS. Infected cell cultures were then incubated with different compounds concentrations at 37 °C for 72 h. Luminescence was measured using the Promega kit luciferase assay system (Promega, Madison, WI). Assays were performed in duplicate at least twice, to achieve a minimal n=3 per dose response.
# T. cruzi = experiment: β-D-Galactosidase transgenic T. cruzi assay (amastigote-infected L6 cells); assay type: cell-based, T. cruzi Tulahuen C4 strain; conditions: 96 h; for EC50: Trypanosoma cruzi, read-out: T. cruzi pEC50 (converted)
# Experimental: The T. cruzi Tulahuen C4 strain, expressing the β-galactosidase gene (LacZ) and L6 rat skeletal muscle cells, used as host cells, were cultured in RPMI-1640 supplemented with 10% iFBS, 2 mM L-glutamine, 100 U/mL penicillin, and 100 μg/mL streptomycin at 37 °C and 5% CO2.
# A Thermo Scientific Multidrop Combi dispenser (MTX Lab Systems, Vienna, VA) was used to dispense 90 μL of T. cruzi amastigote–infected L6 cell culture (4×10^3 infected L6 cells per well) into 96-well Corning assay plates (Corning Inc., Corning, NY) already containing 10 μL of the compounds to be screened and controls. The plates were incubated at 37 °C for 96 h. Then, 30 μL of 100 μM CPRG and 0.1% NP40 diluted in PBS were added to each well, and the plates were incubated for 4 h at 37 °C in the dark. Absorbance at 585 nm was measured in a Vmax kinetic microplate reader ([…]). Compound activities were normalized using the in-plate negative (benznidazole at 10 μg/mL) and positive (0.2% DMSO) growth controls.
# MRC5-SV2 cell line [5] = experiment: Cytotoxicity assay in MRC5 (resazurin, 48 h); assay type: cell-based, human; conditions: MRC5 toxicity
# Experimental: For dose-response experiments, compound plates were prepared for each analogue by serial 3-fold dilutions in 100% DMSO. Five concentration points (mammalian cytotoxicity) or ten concentration points (parasite growth inhibition), were made in 96-well transparent Nunclon plates. Pentamidine is routinely included in compound plates as internal quality control, and plates are stored sealed at -20 °C for no more than four weeks. Intermediate plates were made as described, adding 95 μL of DMEM complete media to 5 μL of compound per well setting a 5% DMSO amount. Log-phase MRC5 cells were removed from a T-75 TC flask using TrypLE® Express (Thermo®) and dispersed by gentle pipetting. Cell density was adjusted to working concentration in prewarmed DMEM medium: 25,000 cells in 90 μL of culture were plated in 96-well transparent Nunclon plates and let to settle for 24 h at 37 °C and 5% CO2. After settling incubation, 10 μL of fresh made intermediate plate were added per well: final maximal concentration for compounds was 50 μM in 0.5% DMSO per well. […] Fluorescence was read in an Infinite F200 plate reader (Tecan®) at 550 nm (excitation filter) and 590 nm (emission filter). A 4-parameter equation was used to fit the dose-response curves and determination of EC50 by SigmaPlot ® 13.0 software. Assays were performed in duplicate at least twice for positive compounds, to achieve a minimal n=3 per dose response.
# [6] = Shake-flask octanol-water Log D7.4; assay type: physicochemical; conditions: pH 7.4, octanol-water shake-flask
# Experimental: Shake-flask octanol-water distribution coefficient at pH 7.4 (Log D7.4). The aqueous solution used is 10 mM sodium phosphate pH 7.4 buffer. The method has been validated for Log D7.4 ranging from -2 to 5.0.
# T. b. brucei [7] = experiment: T. b. brucei growth inhibition EC50 assay (resazurin, 72 h); assay type: cell-based, Trypanosoma brucei brucei Lister 427; conditions: for EC50: Trypanosoma brucei, read-out: T.b.b. pEC50 (converted)
# Experimental: Mid-log phase growth T. b. brucei was diluted to a working cell density of 2,750 cells/mL and 90 μL/well dispensed into 96-well flat-bottom transparent assay plates (Nunc). Ten μL/well from intermediate plates were added. The final top concentration of compounds was 40 μM in 0.4% DMSO per well.
# Assay plates were incubated for 72 h at 37°C and 5% CO2. Four hours prior to the end of the incubation, 20 μL of a 440 μM resazurin solution in prewarmed HMI-9 was added to each well and incubated for another 4 h. Fluorescence was then measured in an Infinite F200 plate reader (Tecan) at 550 nm (excitation filter) and 590 nm (emission filter). A 4-parameter equation was employed to fit the dose-response curves and determine of EC50 using the SigmaPlot 13.0 software. Assays were performed in duplicate at least twice, to achieve a minimal n = 3 per dose response.
# Bloodstream Trypanosoma brucei brucei Lister 427 was cultured in Hirumi’s modified Iscove’s medium (HMI-9), supplemented with 10% heat-inactivated FBS, at 37 °C and 5% CO2 in T-25 vented flask (Corning®).
# For dose-response experiments, compound plates were prepared for each analogue by serial 3-fold dilutions in 100% DMSO. Five concentration points (mammalian cytotoxicity) or ten concentration points (parasite growth inhibition), were made in 96-well transparent Nunclon plates. Pentamidine is routinely included in compound plates as internal quality control, and plates are stored sealed at -20 °C for no more than four weeks.
# [8] = Human plasma protein binding (equilibrium dialysis); assay type: in vitro ADME; conditions: for fraction unbound at 10 µM: pH 7.4, read-out: PPB (converted)
# Experimental: PPB is determined using equilibrium dialysis (RED device) to separate free from bound compound. The amount of compound in plasma (10 µM initial concentration) and in dialysis buffer (pH 7.4 phosphate buffer) is measured by LC-MS/MS after equilibration at 37 °C in a dialysis chamber. The fraction unbound (fu) is reported.
# [9] = Aqueous pH 7.4 solubility; assay type: physicochemical; conditions: aqueous buffer, thermodynamic from solid; pH 7.4 phosphate buffer, 25 °C, 20-24 h; read-out: Aq. Solubility
# Experimental: Compounds are dried down from 10 mM DMSO solutions using centrifugal evaporation technique. Phosphate buffer (0.1 M pH 7.4) added and StirStix inserted in the glass vials, shaking is then performed at a constant temperature of 25 °C for 20-24 h. This step is followed by double centrifugation with a tip wash in between, to ensure that no residues of the dried compound are interfering. The solutions are diluted before analysis and quantification using LC/MS/MS is performed.
# [10] = Human liver microsomal CLint; assay type: in vitro ADME; conditions: for microsomal CLint: read-out: HLM Clint
# Experimental: In vitro intrinsic clearance determined from human liver microsomes using a standard approach. Following incubation and preparation, the samples are analyzed using LC/MS/MS.
# Rat hepatocyte CLint = assay type: in vitro ADME; conditions: rat hepatocytes
# Experimental: In vitro intrinsic clearance determined from rat hepatocytes using a standard approach. Following incubation and preparation, the samples are analyzed using LC/MS/MS.
# [11] = 72 h, resazurin, error within ±0.20 (Table 2) or ±0.08 (Table 3) log units
Molecule,Adult severity score (10 μM) ([3]; 3h),Adult severity score (10 μM) ([3]; 6h),Adult severity score (10 μM) ([3]; 24h),Adult severity score (10 μM) ([3]; 48h),Somule severity score (10 μM) ([3]; 24h),Somule severity score (10 μM) ([3]; 48h),Kinetic aq. solubility [4] [µM],T.b.b. pEC50 (T. b. brucei [1]),EC50 (L. donovani) [µM],EC50 (T. cruzi) [µM],MRC5 pTC50 (MRC5-SV2 cell line [5]),logD [6],EC50 (T. b. brucei [7]; [11]) [µM],fraction unbound at 10 µM [8],solubility [9] [µM],other results
"CCS(=O)(=O)Nc1ccc2c(c1)/C(=C(/Nc1ccc(CN3CCCCC3)cc1)c1ccccc1)C(=O)N2 [Hesperadin, reference compound]",–,–,–,–,–,–,–,–,–,–,–,–,–,–,–,"T.b.brucei pEC50 (T. b. brucei [1]; printed in Fig 4, ref [16]): 7.22; MRC5 pTC50 (MRC5-SV2 cell line [2]): 6.69"
CC(C)=Cc1cccc2c1C(=NNc1ccc(S(N)(=O)=O)cc1)C(=O)N2 [NEU-1183],2,2,2,2,1,4,<5,7.6,> 5.01,0.724,–,–,–,–,–,activity against S. mansoni adults and/or somules ([3]; 10 μM): moderate and variable activity
NS(=O)(=O)c1ccc(N/N=C2\C(=O)Nc3ccc4ncccc4c32)cc1 [NEU-1184],–,–,–,–,–,–,7.7,7.1,–,–,–,–,–,–,–,–
NS(=O)(=O)c1ccc(N/N=C2\C(=O)Nc3ccc(-c4cnco4)cc32)cc1 [NEU-1185],–,–,–,–,–,–,18,6.4,–,–,–,–,–,–,–,–
"COc1ccc(N/N=C2\C(=O)Nc3ccccc32)cc1 [NEU-2114, (Z)-3-(2-(4-Methoxyphenyl)hydrazono)indolin-2-one]",0,0,0,0,2,0,–,–,> 10,> 10,<4.3,> 3.3,10,< 0.03,< 7,–
"NS(=O)(=O)c1ccc(N/N=C2\C(=O)Nc3ccccc32)cc1 [NEU-2115, (Z)-4-(2-(2-Oxoindolin-3-ylidene)hydrazinyl)benzenesulfonamide]",–,–,–,–,–,–,–,–,> 10,> 10,<4.3,2.3,1.26,0.04,< 8,"microsomal CLint ([10]; human, liver microsomes): 20.4 µL/min/mg"
"O=C1Nc2ccccc2C1=NNc1ccccc1 [NEU-2116, (Z)-3-(2-Phenylhydrazono)indolin-2-one]",0,0,0,1,0,0,–,–,> 10,> 10,<4.3,> 3.8,–,< 0.02,< 2,EC50 (T. b. brucei [7]; 72 h): 12.6 µM; microsomal CLint ([10]; human liver microsomes): 184 µL/min/mg
"O=C1Nc2ccccc2/C1=N/Nc1cc(Cl)cc(Cl)c1 [NEU-2117, (Z)-3-(2-(3,5-Dichlorophenyl)hydrazono)indolin-2-one]",1,0,0,3,0,0,–,–,> 10,> 10,<4.3,> 3.7,> 39.8,< 0.04,< 3,–
"CC(C)=Cc1cccc2c1/C(=N/Nc1ccc(S(=O)(=O)N(C)C)cc1)C(=O)N2 [NEU-4405, (Z)-N,N-Dimethyl-4-(2-(4-(2-methylprop-1-en-1-yl)-2-oxoindolin-3-ylidene)hydrazinyl)benzenesulfonamide]",–,–,–,–,–,–,–,–,> 5.01,> 20,<4.3,–,5.01,–,–,–
(Z)-3-(2-(4-((Piperidin-1-ylmethyl)sulfonyl)phenyl)hydrazineylidene)indolin-2-one [NEU-4893],–,–,–,–,–,–,–,–,–,–,<4.3,–,–,–,–,LogD (7.4) [6]: 2.2; activity against T. brucei (T. b. brucei [7]): inactive; T.b.b. pEC50 (T. b. brucei [7]; [11]): 5.0; PPB ([8]; 10 µM): 90%; HLM Clint ([10]; human liver microsomes): <3 µL/min/mg; L. donovani pEC50 (L. donovani): <5.30; Rat Hepatocyte Clint (Rat hepatocyte CLint): 148 µL/min/10^6 cells; T. cruzi pEC50 (T. cruzi): <4.70
